Assay results from ChEMBL document CHEMBL2074375, “Comparison between isopropyl unoprostone and latanoprost by prostaglandin E(2)induction, affinity to prostaglandin transporter, and intraocular metabolism” (Exp Eye Res, 2002).

Target: Solute carrier organic anion transporter family member 2A1 (Homo sapiens, UniProt Q92959)
Assay: TP_TRANSPORTER: inhibition of PGE1 uptake (PGE1: 0.0004 uM) in PGT-expressing HeLa cells
Type: functional, cell-based

SMILES	Ki [nM]
O=C(O)CCC/C=C\C[C@@H]1[C@@H](CC[C@@H](O)CCc2ccccc2)[C@H](O)C[C@@H]1O [LATANOPROST ACID]	149
CC(C)OC(=O)CCC/C=C\C[C@@H]1[C@@H](CC[C@@H](O)CCc2ccccc2)[C@H](O)C[C@@H]1O [LATANOPROST]	> 10000
